Measured values reported in patent publication US20260297060A1, “COMPOUNDS FOR THE DEGRADATION OF MUTANT BRAF” (C4 THERAPEUTICS, INC., priority 2023, published 2026).
Where two headings read alike, the source gives them in different places.

Experiment: Pharmacokinetics after 21 days dosing in the efficacy study (plasma, tumor and brain concentrations; plasma AUC at steady state), Example 14
Format: in vivo, female BALB/c nude mice
Protocol: Agents were tested in the A375 human melanoma xenografts. Compound 26 and Compound 141 were administered to BALB/c nude mice bearing A375 tumors from PG-DO and dosed via PO twice a day (BID) or third a day (TIP) or dosed P daily (QD) from PG-D. Dabrafenib was administered to BALB/c nude mice bearing A375 tumors from PG-D1 and dosed via P daily (QD). Compound 26 was dosed at 1.5 mg/kg (QD), 2 mg/kg (TID), 3 mg/kg (BID), 6 mg/kg (QD) and 10 mg/kg (BID) for 21 days. Compound 141 was dosed at 0.75 mg/kg (BID), 1 mg/kg (TID), 1.5 mg/kg (BID), 3 mg/kg (QD) and 5 mg/kg (BID) for 21 days. Dabrafenib was dosed at 100 mg/kg for 21 days. This study was non-GLP.
The plasma samples were collected at predetermined time points for PK analysis. For non-termination plasma collection: the blood samples were collected into the 1.5 mL Eppendorf tubes containing 3 μL of 0.5 M EDTA-K2. And then the anticoagulant blood samples were centrifuged at 2,500 g at 4° C. for 15 minutes. For termination plasma collection: the mice was euthanized at predetermined time points post the treatment, the blood samples were collected into the 1.5 mL Eppendorf tubes containing 15 μL of 0.5 M EDTA-K2. And then the anticoagulant blood samples were centrifuged at 2,500 g at 4° C. for 15 minutes. The plasma samples were separated into 2 aliquots. The 1st was used for PK analysis, and the 2nd was served as backup.
The tumor samples were collected at predetermined time points for PK and WB analysis. The tumor was dissected out and split into 3 parts. The 1st part was used for PK analysis, the 2nd part was used for WB analysis and the last one was used as backup for the study. The samples were transferred into pre-labeled tubes and quickly froze in liquid nitrogen within 2 minutes after dissection. The samples were stored at −80° C. before analysis.
The brain samples were collected at predetermined time points for PK and potential WB analysis. The brain was dissected out and split into 3 parts (left brain, right brain upper and right brain lower), the left brain was used for PK, the right brain upper was used for WB and the last one was used as the backup for the study. The samples were transferred into pre-labeled tubes and quickly froze in liquid nitrogen within 2 minutes after dissection. The samples were stored at −80° C. before analysis.
The harvested plasma and tumor samples were processed for pharmacokinetics analysis by LC-MS/MS with a concentration range of 1.00-1,000 ng/mL for dabrafenib in plasma and 0.0500-50 ng/mL in tumor and brain homogenate, 5.00-10,000 ng/mL for Compound 141 in plasma and 0.200~200 ng/ml in tumor and brain homogenate. 20.0~20,000 ng/mL for Compound 26 in plasma and 0.5~500 ng/mL for Compound 26 tumor and brain homogenate.
Dabrafenib, Compound 26 and Compound 141 in female BALB/c nude mice plasma (K2-EDTA), tumor and brain homogenate were analyzed by LC-MS/MS (Triple Quad 6500+ Low Mass). Verapamil (5 ng/mL) in acetonitrile: methanol (V: V=95:5) was used as the internal standard for Dabrafenib, Compound 26 and Compound 141 in plasma. Verapamil (0.5 ng/mL) in acetonitrile: methanol (V: V=95:5) was used as the internal standard for Dabrafenib, Compound 26 and Compound 141 in tumor and brain homogenate.
An aliquot of 10 μL unknown sample, calibration standard, quality control, dilute quality control, single blank and double blank samples were added to the 96-well plate. Each sample for Dabrafenib, Compound 26 and Compound 141 in plasma (except the double blank) was quenched with 200 μL IS respectively (double blank sample was quenched with 200 μL ACN: MeOH (V: V=95:5)); each sample for Dabrafenib, Compound 26 and Compound 141 in tumor and brain(except the double blank) was quenched with 100 μL IS respectively (double blank sample was quenched with 100 μL ACN: MeOH (V: V=95:5)); and then the mixture was vortex-mixed for 5 min at 800 rpm and centrifuged for 15 min at 3220 g (4000 rpm), 4° C. […]

Concentration in Brain (100 mg/kg p.o. QD x 21 days, 24 h, BQL: below the lower limit of quantitation): BQL^a
concentration at 4 h (mouse, brain, po, 100 mg/kg p.o. QD x 21 days, mean ± SEM, read-out: Concentration in Brain): 3.59 ± 0.558 ng/g
concentration at 0.25 h (mouse, plasma, po, 100 mg/kg p.o. QD x 21 days, 0.25 h, mean ± SEM): 38700 ± 2110 ng/mL
concentration at 0.5 h (mouse, plasma, po, 100 mg/kg p.o. QD x 21 days, 0.5 h, mean ± SEM): 25700 ± 5690 ng/mL
concentration at 1 h (mouse, plasma, po, 100 mg/kg p.o. QD x 21 days, 1 h, mean ± SEM): 3270 ± 443 ng/mL
concentration at 2 h (mouse, plasma, po, 100 mg/kg p.o. QD x 21 days, 2 h, mean ± SEM): 444 ± 129 ng/mL
concentration at 4 h (mouse, plasma, po, 100 mg/kg p.o. QD x 21 days, mean ± SEM, read-out: Concentration in Plasma): 54.4 ± 7.02 ng/mL
concentration at 8 h (mouse, plasma, po, 100 mg/kg p.o. QD x 21 days, 8 h, mean ± SEM): 55.4 ± 4.19 ng/mL
concentration at 10 h (mouse, plasma, po, 100 mg/kg p.o. QD x 21 days, 10 h, mean ± SEM): 24 ± 6.86 ng/mL
concentration at 24 h (mouse, plasma, po, 100 mg/kg p.o. QD x 21 days, 24 h, read-out: Concentration in Plasma): 2.27 ng/mL
AUC (mouse, plasma, po, 100 mg/kg p.o. QD × 21 days, read-out: Plasma AUC at steady state (Day 21), Average): 18100 ng·h/mL
concentration at 4 h (mouse, tumor, po, 100 mg/kg p.o. QD x 21 days, mean ± SEM, read-out: Concentration in Tumor): 137 ± 7.51 ng/g
concentration at 24 h (mouse, tumor, po, 100 mg/kg p.o. QD x 21 days, 24 h, mean ± SEM, read-out: Concentration in Tumor): 1.43 ± 0.191 ng/g
SMILES: CC(C)(C)c1nc(-c2cccc(NS(=O)(=O)c3c(F)cccc3F)c2F)c(-c2ccnc(N)n2)s1 [Dabrafenib, dabrafenib, reference compound]
